A short description of test [1]: Antiproliferative activity against human SW620 cells assessed as cell growth inhibition after 48 hrs by MTT assay. Format: functional, cell-based. The following applies: SW-620, 48 h. On the technique in general: Formazan colour is commonly taken as a measure of viable cells.
The subject of a further test is HT-29. Kind of test: Antiproliferative activity against human HT-29 cells assessed as cell growth inhibition after 48 hrs by MTT assay. The following applies: HT-29, 48 h. Format: functional, cell-based.
A short description of test [2]: Antiproliferative activity against human MGC803 cells assessed as cell growth inhibition after 48 hrs by MTT assay. The note with it: MGC-803, 48 h. Format: functional, cell-based.
A short description of test [3]: Antiproliferative activity against human […] cells assessed as cell growth inhibition after 48 hrs by MTT assay. Format: functional, cell-based.
The target in a further test is Sonic hedgehog protein (Mus musculus, UniProt Q62226). The test is described as follows: Inhibition of hedgehog signalling in mouse NIH3T3-Gli-luc cells after 48 hrs by dual luciferase reporter assay. Format: cell-based.
Sonic hedgehog protein, sequence (Q62226 25-198 limits assumed): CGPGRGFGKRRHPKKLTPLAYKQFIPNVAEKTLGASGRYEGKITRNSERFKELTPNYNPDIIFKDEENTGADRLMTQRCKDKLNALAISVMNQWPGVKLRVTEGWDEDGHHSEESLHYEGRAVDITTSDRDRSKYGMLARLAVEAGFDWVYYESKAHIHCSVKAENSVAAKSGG
A further test has as its target Protein smoothened (Homo sapiens, UniProt Q99835). Kind of test: Displacement of boron-dipyrromethene-cyclopamine from human smoothened receptor expressed in HEK293 cells incubated for 4 hrs by hSMO-BC binding assay. Format: cell-based.

Where only a bound is given, the exact number is not on record here.

Protein smoothened, sequence (Q99835 whole entry): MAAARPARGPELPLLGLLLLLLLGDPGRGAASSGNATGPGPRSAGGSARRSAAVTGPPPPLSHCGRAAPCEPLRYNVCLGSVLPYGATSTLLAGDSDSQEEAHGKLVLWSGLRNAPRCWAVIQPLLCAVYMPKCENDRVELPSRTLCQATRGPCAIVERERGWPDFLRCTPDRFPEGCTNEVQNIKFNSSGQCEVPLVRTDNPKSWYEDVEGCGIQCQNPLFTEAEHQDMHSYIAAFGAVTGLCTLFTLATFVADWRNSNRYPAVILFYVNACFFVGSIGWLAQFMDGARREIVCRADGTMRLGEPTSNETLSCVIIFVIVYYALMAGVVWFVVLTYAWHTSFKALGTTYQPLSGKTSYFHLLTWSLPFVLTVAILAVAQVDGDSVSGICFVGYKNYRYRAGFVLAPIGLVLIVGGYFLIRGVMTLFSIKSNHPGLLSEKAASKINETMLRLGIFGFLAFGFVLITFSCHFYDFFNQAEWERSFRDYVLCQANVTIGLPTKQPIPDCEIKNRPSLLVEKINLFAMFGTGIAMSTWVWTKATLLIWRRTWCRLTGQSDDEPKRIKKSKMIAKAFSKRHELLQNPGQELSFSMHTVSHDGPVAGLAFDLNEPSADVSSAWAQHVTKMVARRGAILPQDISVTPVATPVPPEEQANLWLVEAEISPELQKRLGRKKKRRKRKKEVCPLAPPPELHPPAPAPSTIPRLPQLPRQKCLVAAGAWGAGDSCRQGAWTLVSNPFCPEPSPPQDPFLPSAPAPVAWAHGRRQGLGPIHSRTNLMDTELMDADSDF

As for `Cc1ccc(NC(=O)NC(=O)c2ccc(OCc3cccc(F)c3)cc2)cc1-c1nc2ccccc2[nH]1`, the IC50 in test [1] worked out at 39.6 µM; in the test with HT-29, 38.2 µM; in test [2], 44.8 µM; in test [3] it was 53 µM.

On to `Cc1ccc(NC(=S)NC(=O)c2ccc(OCc3cccc(F)c3)cc2)cc1-c1nc2ccccc2[nH]1`, for which the IC50 in test [1] is more than 100 µM; in the test with HT-29 it was 55.3 µM; in test [2], more than 100 µM; in test [3], 86.8 µM.

In the case of `Cc1ccc(NC(=O)NC(=O)c2ccc(OCc3cccc(Cl)c3)cc2)cc1-c1nc2ccccc2[nH]1`, the IC50 in test [1] came to 16 µM; in the test on HT-29, 15.4 µM; in test [2], 20.8 µM; in test [3] it was 28 µM.

Regarding `O=C(NC(=O)c1ccc(OCc2ccc(F)cc2)cc1)Nc1ccc(Cl)c(-c2nc3ccccc3[nH]2)c1`, the IC50 in test [1] came out at 33.6 µM; with HT-29 it was 0.73 µM; in test [2], 0.061 µM; in test [3], 0.35 µM; against Sonic hedgehog protein it was 0.032 µM; on Protein smoothened, 0.042 µM.

`Cc1ccc(NC(=O)NC(=O)c2ccc(OCc3ccc(F)cc3)cc2)cc1-c1nc2ccccc2[nH]1`: the IC50 in test [1] is 35.1 µM; with HT-29, 0.98 µM; in test [2], 0.16 µM; in test [3] it was 0.24 µM; at Sonic hedgehog protein, 0.037 µM.

For the compound `Cc1ccc(NC(=S)NC(=O)c2ccc(OCc3ccccc3F)cc2)cc1-c1nc2ccccc2[nH]1`, the IC50 worked out at 6.44 µM in test [1]; 1.87 µM in the test with HT-29; 3.07 µM in test [2]; 2.42 µM in test [3]; 0.158 µM against Sonic hedgehog protein.

As to `Cc1ccc(NC(=S)NC(=O)c2ccc(OCc3cccc(C(F)(F)F)c3)cc2)cc1-c1nc2ccccc2[nH]1`, the IC50 is 15.4 µM in test [1], 8.2 µM in the test with HT-29, 5.21 µM in test [2] and 6.05 µM in test [3].

In the case of `Cc1ccc(NC(=S)NC(=O)c2ccc(OCc3ccc(Cl)cc3Cl)cc2)cc1-c1nc2ccccc2[nH]1`, the IC50 was found to be 57.2 µM in test [1], 11.6 µM with HT-29, 3.45 µM in test [2] and 5.3 µM in test [3].

Turning to `Cc1ccc(NC(=O)NC(=O)c2ccc(OCc3ccc(C(F)(F)F)cc3)cc2)cc1-c1nc2ccccc2[nH]1`, the IC50 was determined as 15.3 µM in test [1], 7.83 µM in the test on HT-29, 14.9 µM in test [2] and 16.8 µM in test [3].

Regarding `Cc1ccc(NC(=S)NC(=O)c2ccc(OCc3cccc(Cl)c3)cc2)cc1-c1nc2ccccc2[nH]1`, the IC50 was more than 100 µM in test [1], 35.3 µM with HT-29, 51.3 µM in test [2] and 43.3 µM in test [3].

`O=C(NC(=S)Nc1ccc(Cl)c(-c2nc3ccccc3[nH]2)c1)c1ccc(OCc2ccc(C(F)(F)F)cc2)cc1`: the IC50 is 63.9 µM in test [1], 12.9 µM in the test on HT-29, 5.33 µM in test [2] and 7.83 µM in test [3].

Turning to `Cc1ccc(COc2ccc(C(=O)NC(=O)Nc3ccc(Cl)c(-c4nc5ccccc5[nH]4)c3)cc2)cc1`, the IC50 in test [1] came to 23.2 µM; in the test with HT-29 it was 2.95 µM; in test [2], 3.86 µM; in test [3], 3.19 µM.

`Cc1ccc(NC(=S)NC(=O)c2ccc(OCc3ccccc3)cc2)cc1-c1nc2ccccc2[nH]1`: the half-maximal inhibitory concentration (IC50) in test [1] stood at 67.1 µM; in the test on HT-29, 28.8 µM; in test [2], 60.7 µM; in test [3] it was 57.8 µM.

In the case of `O=C(NC(=S)Nc1ccc(Cl)c(-c2nc3ccccc3[nH]2)c1)c1ccc(OCc2ccc(Cl)c(Cl)c2)cc1`, the IC50 in test [1] amounted to 24.9 µM; in the test with HT-29 it was 4.93 µM; in test [2], 5.17 µM; in test [3], 4.6 µM.

Turning to `Cc1ccc(NC(=O)NC(=O)c2ccc(OCc3ccccc3)cc2)cc1-c1nc2ccccc2[nH]1`, the IC50 in test [1] is 30.1 µM; in the test on HT-29, 16.4 µM; in test [2], 39.4 µM; in test [3] it was 35.1 µM.

For `Cc1ccc(NC(=S)NC(=O)c2ccc(OCc3ccc(Cl)c(Cl)c3)cc2)cc1-c1nc2ccccc2[nH]1`, the IC50 in test [1] came out at 30.7 µM; with HT-29, 6.27 µM; in test [2], 6.39 µM; in test [3], 8.41 µM.

As for `Cc1ccc(COc2ccc(C(=O)NC(=O)Nc3ccc(C)c(-c4nc5ccccc5[nH]4)c3)cc2)cc1`, the IC50 in test [1] stood at 26 µM; in the test on HT-29, 5.11 µM; in test [2], 4.25 µM; in test [3], 6.36 µM.

Consider `COc1cc(C(=O)NC(=S)Nc2cccc(NC(=O)c3ccccc3)c2)cc(OC)c1OC`, for which the IC50 is 21.2 µM in test [1]; 6.61 µM in the test on HT-29; 8.62 µM in test [2]; 13.8 µM in test [3]; 0.65 µM at Sonic hedgehog protein; 0.281 µM on Protein smoothened.

As to `Cc1ccc(NC(=S)NC(=O)c2ccc(OCc3ccc(C(F)(F)F)cc3)cc2)cc1-c1nc2ccccc2[nH]1`, the IC50 came to 72.4 µM in test [1], 17.6 µM in the test on HT-29, 6.5 µM in test [2] and 10.2 µM in test [3].

Regarding `Cc1ccc(COc2ccc(C(=O)NC(=S)Nc3ccc(C)c(-c4nc5ccccc5[nH]4)c3)cc2)cc1`, the IC50 in test [1] amounted to 60.9 µM; in the test with HT-29 it was 14.2 µM; in test [2], 4.98 µM; in test [3], 11.3 µM.

For the compound `CS(=O)(=O)c1ccc(C(=O)Nc2ccc(Cl)c(-c3ccccn3)c2)c(Cl)c1` [VISMODEGIB], the IC50 was 10.9 µM in test [1]; 1.08 µM with HT-29; 2.39 µM in test [2]; 2.88 µM in test [3]; 0.013 µM on Sonic hedgehog protein.

Turning to `Cc1ccc(NC(=O)NC(=O)c2ccc(OCc3cccc(Cl)c3Cl)cc2)cc1-c1nc2ccccc2[nH]1`, the IC50 in test [1] was 42.1 µM; in the test with HT-29, 48.5 µM; in test [2], more than 100 µM; in test [3], 87 µM.

Regarding `Cc1ccc(NC(=O)NC(=O)c2ccc(OCc3ccccc3F)cc2)cc1-c1nc2ccccc2[nH]1`, the IC50 amounted to 4.11 µM in test [1], 0.76 µM in the test with HT-29, 2.52 µM in test [2] and 1.83 µM in test [3].

On to `O=C(NC(=S)Nc1ccc(Cl)c(-c2nc3ccccc3[nH]2)c1)c1ccc(OCc2ccc(Cl)cc2Cl)cc1`, for which the IC50 in test [1] was found to be 50.2 µM; with HT-29, 6.08 µM; in test [2], 3.03 µM; in test [3], 3.75 µM.

With `Cc1ccc(NC(=S)NC(=O)c2ccc(OCc3cccc(Cl)c3Cl)cc2)cc1-c1nc2ccccc2[nH]1`, the IC50 in test [1] was more than 100 µM; in the test on HT-29, 63.7 µM; in test [2] it was more than 100 µM; in test [3] it was more than 100 µM.

As to `Cc1ccc(NC(=S)NC(=O)c2ccc(OCc3ccc(F)cc3)cc2)cc1-c1nc2ccccc2[nH]1`, the half-inhibitory concentration (IC50) in test [1] worked out at 40.5 µM; in the test on HT-29 it was 1.91 µM; in test [2] it was 2.81 µM; in test [3], 4.22 µM.

Regarding `Cc1ccc(NC(=O)NC(=O)c2ccc(OCc3ccc(Cl)cc3Cl)cc2)cc1-c1nc2ccccc2[nH]1`, the IC50 came to 12.2 µM in test [1], 2.62 µM in the test on HT-29, 2.74 µM in test [2] and 2.55 µM in test [3].

For the compound `Cc1ccc(NC(=O)NC(=O)c2ccc(OCc3ccccc3Cl)cc2)cc1-c1nc2ccccc2[nH]1`, the IC50 was determined as 35.7 µM in test [1], 9.01 µM in the test with HT-29, 19.5 µM in test [2] and 21.5 µM in test [3].

Turning to `Cc1ccc(NC(=O)NC(=O)c2ccc(OCc3ccc(Cl)c(Cl)c3)cc2)cc1-c1nc2ccccc2[nH]1`, the IC50 in test [1] was 6.1 µM; in the test with HT-29, 1.03 µM; in test [2] it was 6.08 µM; in test [3] it was 5.82 µM.

Take `Cc1ccc(NC(=S)NC(=O)c2ccc(OCc3ccccc3Cl)cc2)cc1-c1nc2ccccc2[nH]1`: the half-inhibitory concentration (IC50) in test [1] turned out to be 57.1 µM; with HT-29, 23.7 µM; in test [2], 45 µM; in test [3], 51.4 µM.

For `O=C(NC(=O)c1ccc(OCc2ccccc2F)cc1)Nc1ccc(Cl)c(-c2nc3ccccc3[nH]2)c1`, the IC50 in test [1] was found to be 2.93 µM; with HT-29, 0.59 µM; in test [2] it was 0.12 µM; in test [3], 0.87 µM; against Sonic hedgehog protein it was 0.025 µM; on Protein smoothened, 0.019 µM.

Take `Cc1ccc(NC(=O)NC(=O)c2ccc(OCc3cccc(C(F)(F)F)c3)cc2)cc1-c1nc2ccccc2[nH]1`: the IC50 was determined as 9.64 µM in test [1], 3.52 µM in the test with HT-29, 13.1 µM in test [2] and 9.6 µM in test [3].

For orientation: IC50 means the point on the concentration scale where inhibition reaches its midpoint.

The values are drawn from ChEMBL document CHEMBL3739278, “Synthesis and evaluation of novel N-3-benzimidazolephenylbisamide derivatives for antiproliferative and Hedgehog pathway inhibitory activity” (Medchemcomm, 2015).
